Data published in PMC11647725, “Discovery of 4-(5-Membered)Heteroarylether-6-methylpicolinamide Negative Allosteric Modulators of Metabotropic Glutamate Receptor Subtype 5” (ACS Medicinal Chemistry Letters, 2024).

Legend:
Assay in all cases: Lead Profiling Screen, Eurofins Panlabs
Format in all cases: binding
Muscarinic M2 = Muscarinic M2 (Homo sapiens, UniProt P08172); conditions: Muscarinic M2, hum, read-out: % inh at 10 μM
Adrenergic β1 = Adrenergic β1 (Homo sapiens, UniProt P08588); conditions: Adrenergic β1, hum, read-out: % inh at 10 μM
Excerpt: (§1) Nonetheless, as a non-aryl/heterobiaryl acetylene mGlu5 NAM with an encouraging in vivo rodent PK profile, we wished to further assess VU6043653 as a novel chemotype. Therefore, we compared metabolites in multiple species to better understand species differences in clearance and metabolism. […] Consistent with the high plasma clearance observed in dogs, high turnover was observed more so in dog hepatocytes than any other species tested (see the Supporting Information for additional details and results). To further evaluate our novel chemotype, the off-target and safety/toxicity profiles for this compound were further investigated.
(§2) Table S2. Lead Profiling Screen – Eurofins Panlabs for VU6043653.

Dopamine D4.4 = Dopamine D4.4 (Homo sapiens, UniProt P21917); conditions: Dopamine D4.4, hum, read-out: % inh at 10 μM
Excerpt: as §1, §2

Adenosine A2A = Adenosine A2A (Homo sapiens, UniProt P29274); conditions: hum, read-out: % inh at 10 μM
Excerpt: as §1, §2

Adrenergic α1B = Adrenergic α1B (Homo sapiens, UniProt P35368); conditions: hum, read-out: % inh at 10 μM
Excerpt: as §1, §2

Glucocorticoid = Glucocorticoid (Homo sapiens, UniProt P04150); conditions: hum, read-out: % inh at 10 μM
Excerpt: as §1, §2

Dopamine D1 = Dopamine D1 (Homo sapiens, UniProt P21728); conditions: Dopamine D1, hum, read-out: % inh at 10 μM
Excerpt: as §1, §2

Bradykinin B1 = Bradykinin B1 (Homo sapiens, UniProt P46663); conditions: Bradykinin B1, hum, read-out: % inh at 10 μM
Excerpt: as §1, §2

Dopamine D2S = Dopamine D2S (Homo sapiens, UniProt P14416); conditions: hum, read-out: % inh at 10 μM
Excerpt: as §1, §2

GABAB1A = GABAB1A (Homo sapiens, UniProt Q9UBS5); conditions: hum, read-out: % inh at 10 μM
Excerpt: as §1, §2

Adrenergic α2A = Adrenergic α2A (Homo sapiens, UniProt P08913); conditions: hum, read-out: % inh at 10 μM
Excerpt: as §1, §2

Adrenergic α1D = Adrenergic α1D (Homo sapiens, UniProt P25100); conditions: hum, read-out: % inh at 10 μM
Excerpt: as §1, §2

Cannabinoid CB1 = Cannabinoid CB1 (Homo sapiens, UniProt P21554); conditions: Cannabinoid CB1, hum, read-out: % inh at 10 μM
Excerpt: as §1, §2

Sequence of Adrenergic β1 (P08588 whole entry): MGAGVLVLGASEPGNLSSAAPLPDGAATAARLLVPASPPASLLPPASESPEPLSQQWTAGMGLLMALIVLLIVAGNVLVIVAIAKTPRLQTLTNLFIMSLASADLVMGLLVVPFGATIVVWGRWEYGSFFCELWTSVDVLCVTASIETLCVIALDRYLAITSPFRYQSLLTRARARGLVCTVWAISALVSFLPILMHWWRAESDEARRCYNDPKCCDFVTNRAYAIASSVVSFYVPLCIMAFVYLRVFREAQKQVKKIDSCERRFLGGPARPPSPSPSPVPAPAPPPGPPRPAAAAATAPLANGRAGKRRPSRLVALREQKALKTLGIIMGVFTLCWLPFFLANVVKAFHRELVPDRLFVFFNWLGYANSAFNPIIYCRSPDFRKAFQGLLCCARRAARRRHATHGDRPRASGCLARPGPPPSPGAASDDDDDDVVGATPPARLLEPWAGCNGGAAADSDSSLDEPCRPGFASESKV
Sequence of Adrenergic α1B (P35368 whole entry): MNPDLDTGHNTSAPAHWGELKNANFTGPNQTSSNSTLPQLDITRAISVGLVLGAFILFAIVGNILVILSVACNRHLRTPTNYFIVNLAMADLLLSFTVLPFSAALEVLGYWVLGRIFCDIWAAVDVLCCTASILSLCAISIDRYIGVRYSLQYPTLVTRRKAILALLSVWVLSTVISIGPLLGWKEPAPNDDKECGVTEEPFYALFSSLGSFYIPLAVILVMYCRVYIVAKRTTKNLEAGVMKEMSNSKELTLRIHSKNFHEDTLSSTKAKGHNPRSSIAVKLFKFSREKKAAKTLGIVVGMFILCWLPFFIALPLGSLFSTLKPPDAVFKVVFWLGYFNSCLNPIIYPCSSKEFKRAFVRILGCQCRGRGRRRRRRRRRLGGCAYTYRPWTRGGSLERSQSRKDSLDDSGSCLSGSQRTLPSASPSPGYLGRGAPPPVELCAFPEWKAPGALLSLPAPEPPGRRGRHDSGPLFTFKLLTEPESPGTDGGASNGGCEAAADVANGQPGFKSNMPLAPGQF
Sequence of Adrenergic α1D (P25100 whole entry): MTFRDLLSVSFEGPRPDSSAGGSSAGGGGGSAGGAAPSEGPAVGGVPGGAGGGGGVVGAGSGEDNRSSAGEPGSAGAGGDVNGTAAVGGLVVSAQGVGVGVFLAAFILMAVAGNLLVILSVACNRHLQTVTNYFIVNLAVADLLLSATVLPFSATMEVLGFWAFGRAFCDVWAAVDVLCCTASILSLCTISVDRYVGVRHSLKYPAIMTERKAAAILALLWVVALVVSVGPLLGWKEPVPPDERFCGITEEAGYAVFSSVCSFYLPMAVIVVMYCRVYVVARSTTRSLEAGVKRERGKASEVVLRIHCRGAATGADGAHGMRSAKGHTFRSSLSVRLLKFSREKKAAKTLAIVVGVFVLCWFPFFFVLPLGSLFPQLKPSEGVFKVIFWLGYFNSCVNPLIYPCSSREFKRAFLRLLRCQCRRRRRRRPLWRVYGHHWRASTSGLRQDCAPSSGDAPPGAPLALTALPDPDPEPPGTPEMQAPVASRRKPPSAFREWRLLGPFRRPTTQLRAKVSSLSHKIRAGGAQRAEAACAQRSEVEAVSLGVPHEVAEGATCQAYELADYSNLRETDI
Sequence of GABAB1A (Q9UBS5 15-961 limits assumed): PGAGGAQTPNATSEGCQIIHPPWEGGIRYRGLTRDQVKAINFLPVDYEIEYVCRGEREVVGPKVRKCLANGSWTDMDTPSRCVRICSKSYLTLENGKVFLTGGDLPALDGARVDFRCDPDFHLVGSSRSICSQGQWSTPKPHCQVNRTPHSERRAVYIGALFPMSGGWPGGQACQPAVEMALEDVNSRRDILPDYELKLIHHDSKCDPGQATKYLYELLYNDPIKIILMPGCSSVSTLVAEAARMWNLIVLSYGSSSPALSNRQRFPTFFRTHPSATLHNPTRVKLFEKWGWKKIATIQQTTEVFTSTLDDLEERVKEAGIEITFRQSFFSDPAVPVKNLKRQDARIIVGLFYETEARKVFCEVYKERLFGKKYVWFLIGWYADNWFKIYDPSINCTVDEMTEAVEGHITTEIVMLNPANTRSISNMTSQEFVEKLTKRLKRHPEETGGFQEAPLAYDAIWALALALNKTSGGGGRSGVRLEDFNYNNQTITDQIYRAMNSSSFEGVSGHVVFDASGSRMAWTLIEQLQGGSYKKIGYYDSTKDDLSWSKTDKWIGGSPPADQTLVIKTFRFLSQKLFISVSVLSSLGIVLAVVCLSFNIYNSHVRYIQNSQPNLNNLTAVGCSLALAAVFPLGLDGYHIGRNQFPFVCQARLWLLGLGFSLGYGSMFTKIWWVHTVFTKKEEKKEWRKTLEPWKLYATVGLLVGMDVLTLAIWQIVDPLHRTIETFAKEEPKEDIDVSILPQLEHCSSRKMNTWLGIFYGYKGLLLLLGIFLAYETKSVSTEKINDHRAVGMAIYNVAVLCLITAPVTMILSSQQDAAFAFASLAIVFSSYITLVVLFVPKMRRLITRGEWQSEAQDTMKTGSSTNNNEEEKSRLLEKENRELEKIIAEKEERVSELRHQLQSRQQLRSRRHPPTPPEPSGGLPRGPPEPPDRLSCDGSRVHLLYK
Sequence of Dopamine D1 (P21728 whole entry): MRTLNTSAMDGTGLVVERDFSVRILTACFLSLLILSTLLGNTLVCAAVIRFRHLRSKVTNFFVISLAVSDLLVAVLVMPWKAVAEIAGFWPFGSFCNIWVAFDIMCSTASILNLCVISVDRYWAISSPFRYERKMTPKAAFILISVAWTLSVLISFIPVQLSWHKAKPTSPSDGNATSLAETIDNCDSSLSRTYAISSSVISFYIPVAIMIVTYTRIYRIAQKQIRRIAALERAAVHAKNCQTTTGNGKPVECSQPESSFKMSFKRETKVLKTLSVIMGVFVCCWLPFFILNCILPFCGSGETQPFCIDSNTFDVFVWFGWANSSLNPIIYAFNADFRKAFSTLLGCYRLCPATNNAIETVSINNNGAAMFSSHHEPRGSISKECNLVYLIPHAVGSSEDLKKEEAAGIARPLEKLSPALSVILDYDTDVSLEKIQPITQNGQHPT
Sequence of Adenosine A2A (P29274 whole entry): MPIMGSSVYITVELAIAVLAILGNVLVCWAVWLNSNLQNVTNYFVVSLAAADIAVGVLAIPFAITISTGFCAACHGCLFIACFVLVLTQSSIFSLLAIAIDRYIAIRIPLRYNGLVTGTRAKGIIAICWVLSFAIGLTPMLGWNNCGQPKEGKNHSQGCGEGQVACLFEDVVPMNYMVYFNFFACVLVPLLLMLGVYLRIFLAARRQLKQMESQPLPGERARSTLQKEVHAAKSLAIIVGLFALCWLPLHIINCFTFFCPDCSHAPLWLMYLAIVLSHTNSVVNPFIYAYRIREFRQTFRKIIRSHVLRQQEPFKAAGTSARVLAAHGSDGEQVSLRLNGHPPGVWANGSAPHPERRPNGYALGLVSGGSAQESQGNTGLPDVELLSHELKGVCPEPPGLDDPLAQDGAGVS
Sequence of Cannabinoid CB1 (P21554 whole entry): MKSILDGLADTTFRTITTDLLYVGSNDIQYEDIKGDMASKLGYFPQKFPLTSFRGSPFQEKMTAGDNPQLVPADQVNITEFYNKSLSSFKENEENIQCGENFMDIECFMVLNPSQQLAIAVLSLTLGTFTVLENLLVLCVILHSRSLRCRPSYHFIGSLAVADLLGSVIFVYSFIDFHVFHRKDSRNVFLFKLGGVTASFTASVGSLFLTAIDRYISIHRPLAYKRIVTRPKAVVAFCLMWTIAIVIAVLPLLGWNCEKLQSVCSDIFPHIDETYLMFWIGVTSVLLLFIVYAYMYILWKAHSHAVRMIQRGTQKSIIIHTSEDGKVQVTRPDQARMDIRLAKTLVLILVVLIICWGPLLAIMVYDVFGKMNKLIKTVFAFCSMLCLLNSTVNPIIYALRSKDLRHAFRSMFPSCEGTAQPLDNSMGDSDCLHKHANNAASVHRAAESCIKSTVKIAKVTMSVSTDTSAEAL
Sequence of Muscarinic M2 (P08172 whole entry): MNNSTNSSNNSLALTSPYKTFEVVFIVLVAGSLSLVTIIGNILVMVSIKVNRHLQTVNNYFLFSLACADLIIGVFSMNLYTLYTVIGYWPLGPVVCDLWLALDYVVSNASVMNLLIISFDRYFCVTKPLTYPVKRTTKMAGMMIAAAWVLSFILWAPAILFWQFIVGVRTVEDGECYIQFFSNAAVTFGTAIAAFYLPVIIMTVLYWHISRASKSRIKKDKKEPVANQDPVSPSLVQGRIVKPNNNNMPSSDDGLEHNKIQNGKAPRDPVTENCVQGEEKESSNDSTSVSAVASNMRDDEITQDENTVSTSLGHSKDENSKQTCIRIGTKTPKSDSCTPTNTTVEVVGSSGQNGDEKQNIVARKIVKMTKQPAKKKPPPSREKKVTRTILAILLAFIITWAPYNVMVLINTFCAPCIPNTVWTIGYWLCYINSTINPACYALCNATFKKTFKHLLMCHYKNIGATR
Sequence of Dopamine D2S (P14416 1-414 isoform P14416-2): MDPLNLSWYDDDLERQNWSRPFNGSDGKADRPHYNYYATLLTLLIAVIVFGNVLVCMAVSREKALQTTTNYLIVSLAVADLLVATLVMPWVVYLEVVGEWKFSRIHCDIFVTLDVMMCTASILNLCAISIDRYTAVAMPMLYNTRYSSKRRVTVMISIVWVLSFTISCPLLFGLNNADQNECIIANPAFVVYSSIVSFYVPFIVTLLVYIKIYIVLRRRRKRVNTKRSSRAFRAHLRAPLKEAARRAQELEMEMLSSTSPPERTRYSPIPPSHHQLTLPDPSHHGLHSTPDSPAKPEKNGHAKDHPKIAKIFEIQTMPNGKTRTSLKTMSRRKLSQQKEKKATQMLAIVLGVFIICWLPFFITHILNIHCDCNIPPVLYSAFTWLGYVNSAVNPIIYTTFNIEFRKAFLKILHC

Compound: Cc1cc(Oc2cnn(C)c2)cc(C(=O)Nc2ccc(F)cn2)n1 [22iA]
- inhibition at 10 µM (Muscarinic M2): -2%
- inhibition at 10 µM (Adrenergic β1): -4%
- inhibition at 10 µM (Dopamine D4.4): -9%
- inhibition at 10 µM (Adenosine A2A): 9%
- inhibition at 10 µM (Adrenergic α1B): 3%
- inhibition at 10 µM (Glucocorticoid): 10%
- inhibition at 10 µM (Dopamine D1): -2%
- inhibition at 10 µM (Bradykinin B1): 4%
- inhibition at 10 µM (Dopamine D2S): -10%
- inhibition at 10 µM (GABAB1A): 3%
- inhibition at 10 µM (Adrenergic α2A): 8%
- inhibition at 10 µM (Adrenergic α1D): 3%
- inhibition at 10 µM (Cannabinoid CB1): 15%
